The subject of one assay is HCT-116. Briefly: Antitumor activity against human HCT-116 cells […] in mouse assessed as tumor growth inhibition at 50 mg/kg,sc administered for 5 weeks by 3 times a week. Particulars: HCT-116, 840 h. The assay is classed as functional.
Another assay deals with T1, Cysteine protease ATG4B (Homo sapiens, UniProt Q9Y4P1).
T1 sequence (Q9Y4P1 whole entry): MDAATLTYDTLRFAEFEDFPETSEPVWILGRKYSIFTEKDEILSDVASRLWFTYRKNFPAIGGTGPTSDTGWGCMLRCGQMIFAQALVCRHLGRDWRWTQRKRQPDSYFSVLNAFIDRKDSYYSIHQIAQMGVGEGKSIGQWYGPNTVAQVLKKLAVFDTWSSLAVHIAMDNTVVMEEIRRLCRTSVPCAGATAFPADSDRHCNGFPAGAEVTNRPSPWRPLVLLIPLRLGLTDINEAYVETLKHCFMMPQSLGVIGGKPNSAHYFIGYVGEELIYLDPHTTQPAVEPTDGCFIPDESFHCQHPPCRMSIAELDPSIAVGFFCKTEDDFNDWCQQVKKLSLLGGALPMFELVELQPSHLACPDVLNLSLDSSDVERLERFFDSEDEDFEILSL
Put plainly: Inhibition of ATG4B (unknown origin) using proLC3B as substrate by FRET-LC3 assay.

Molecules are shown by their SMILES.

For the compound `COc1ccc(Nc2cc(C)nc(Nc3ccc(-c4cc5ccccc5o4)cc3)n2)cc1`, in the assay with HCT-116, the inhibition in vivo at 50 mg/kg was 75%.
As to `O=C(N[C@@H](Cc1ccccc1)C(=O)CCl)OCc1ccccc1`, the IC50 on Cysteine protease ATG4B was 3.3 µM.
On the same count and under the same terms, to `Cc1cc(O)c2c(=O)c3c(O)cc(O)c4c5c(O)cc(O)c6c(=O)c7c(O)cc(C)c8c1c2c(c34)c(c78)c65` [HYPERICIN] belongs 8.9 µM.
